Assay results from US8816085B2 (Takeda GmbH, priority 2009, dated 2014).

Target: T1, PDE5A1 (human PDE5 from platelets) (Homo sapiens, UniProt O76074)
T1 construct: from tissue; host or cells: platelets from fresh blood of human donors (10,000 g supernatant of sonified platelets)
Assay: Inhibition of type 5 phosphodiesterase (PDE5) activity, modified SPA test
Assay type: biochemical
Conditions: PDE5-containing human platelet lysate, 0.5 μM cGMP, value classes, read-out: PDE5A1 inhibitory values [measured as −logIC50 (mol/l)] (converted)
Summary of the method: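 Enzyme source: human platelet lysate (10,000 g supernatant), with 1 μM motapizone and 10 nM PDE2 inhibitor present. SPA format in 20 mM Tris pH 7.4, 5 mM Mg2+, 0.5 μM cGMP with [3H]cGMP tracer; 5 min preincubation at 37 °C, 15 min reaction, stopped with IBMX-containing beads. IC50 by non-linear regression.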

Structure (SMILES) | IC50 [nM]
Cc1[nH]c2c(-c3ccc(F)cc3OCC3CC3)ccnc2c1C(=O)NC1CCN(C(=O)[C@H](C)O)CC1 [Example F07, 7-[2-(Cyclopropylmethoxy)-4-fluorophenyl]-N-{1-[(2S)-2-hydroxypropanoyl]piperidin-4-yl}-2-methyl-1H-pyrrolo[3,2-b]pyridine-3-carboxamide] | 1 to 10
COCC(=O)N[C@H]1CC[C@H](NC(=O)c2c(C)[nH]c3c(-c4cc(C)ccc4OCC4CC4)ccnc23)CC1 [Example E57, 7-[2-(Cyclopropylmethoxy)-5-methylphenyl]-N-{trans-4-[(methoxyacetyl)amino]cyclohexyl}-2-methyl-1H-pyrrolo[3,2-b]pyridine-3-carboxamide] | 1 to 10
Cc1ccc(OCC2CC2)c(-c2ccnc3c(C(=O)NC4CCN(C(=O)[C@H](C)O)CC4)c(C)[nH]c23)c1 [Example F35, 7-[2-(cyclopropylmethoxy)-5-methylphenyl]-N-{1-[abs.(2S)-2-hydroxypropanoyl]piperidin-4-yl}-2-methyl-1H-pyrrolo[3,2-b]pyridine-3-carboxamide] | 1 to 10
COCC(=O)N[C@H]1CC[C@H](NC(=O)c2c(C)[nH]c3c(-c4cc(OC)ccc4OCC4CC4)ccnc23)CC1 [Example E45, 7-[2-(Cyclopropylmethoxy)-5-methoxyphenyl]-N-{trans-4-[(methoxyacetyl)amino]cyclohexyl}-2-methyl-1H-pyrrolo[3,2-b]pyridine-3-carboxamide] | < 1
CCOC(=O)N[C@H]1CC[C@@H](NC(=O)c2c(C)[nH]c3c(-c4c(OCC5CC5)ccc5c4OCO5)ccnc23)CC1 [Example E09, Ethyl {cis-4-[({7-[5-(cyclopropylmethoxy)-1,3-benzodioxol-4-yl]-2-methyl-1H-pyrrolo[3,2-b]pyridin-3-yl}carbonyl)amino]cyclohexyl}carbamate] | < 1
COc1cc(-c2ccnc3c(C(=O)NC4CCN(C(=O)CO)CC4)c(C)[nH]c23)c(OCC2CC2)cc1F [Example F40, 7-[2-(Cyclopropylmethoxy)-4-fluoro-5-methoxyphenyl]-N-[1-(hydroxyacetyl)piperidin-4-yl]-2-methyl-1H-pyrrolo[3,2-b]pyridine-3-carboxamide] | < 1
CCC(=O)N[C@H]1CC[C@@H](NC(=O)c2c(C)[nH]c3c(-c4cc(OC)ccc4OCC4CC4)ccnc23)CC1 [Example E47, 7-[2-(Cyclopropylmethoxy)-5-methoxyphenyl]-2-methyl-N-[cis-4-(propanoylamino)cyclohexyl]-1H-pyrrolo[3,2-b]pyridine-3-carboxamide] | 1 to 10
CCC(=O)N[C@H]1CC[C@H](NC(=O)c2c(C)[nH]c3c(-c4cc(C)ccc4OCC4CC4)ccnc23)CC1 [Example E56, 7-[2-(Cyclopropylmethoxy)-5-methylphenyl]-2-methyl-N-[trans-4-(propanoylamino)cyclohexyl]-1H-pyrrolo[3,2-b]pyridine-3-carboxamide] | 1 to 10
CCC(=O)N[C@H]1CC[C@@H](NC(=O)c2c(C)[nH]c3c(-c4ccc(OC)cc4OCC4CC4)ccnc23)CC1 [Example E38, 7-[2-(Cyclopropylmethoxy)-4-methoxyphenyl]-2-methyl-N-[cis-4-(propanoylamino)cyclohexyl]-1H-pyrrolo[3,2-b]pyridine-3-carboxamide] | < 1
CC(=O)N[C@H]1CC[C@H](NC(=O)c2c(C)[nH]c3c(-c4cc(C)ccc4OCC4CC4)ccnc23)CC1 [Example E55, N-[trans-4-(Acetylamino)cyclohexyl]-7-[2-(cyclopropylmethoxy)-5-methylphenyl]-2-methyl-1H-pyrrolo[3,2-b]pyridine-3-carboxamide] | 1 to 10
COc1cc(-c2ccnc3c(C(=O)N[C@H]4CC[C@@H](NC(C)=O)CC4)c(C)[nH]c23)c(OCC2CC2)cc1F [Example E67, N-[cis-4-(Acetylamino)cyclohexyl]-7-[2-(cyclopropylmethoxy)-4-fluoro-5-methoxyphenyl]-2-methyl-1H-pyrrolo[3,2-b]pyridine-3-carboxamide] | < 1
COc1cc(OCC2CC2)c(-c2ccnc3c(C(=O)N[C@H]4CC[C@H](NC(C)=O)CC4)c(C)[nH]c23)cc1F [Example E79, N-(trans-4-Acetamidocyclohexyl)-7-[2-(cyclopropylmethoxy)-5-fluoro-4-methoxyphenyl]-2-methyl-1H-pyrrolo[3,2-b]pyridine-3-carboxamide] | < 1
COc1ccc(OCC2CC2)c(-c2ccnc3c(C(=O)N[C@@H]4CN(C(=O)CO)C[C@H]4O)c(C)[nH]c23)c1 (relative stereo) [Example F32, 7-[2-(Cyclopropylmethoxy)-5-methoxyphenyl]-N-[(3R*,4R*)-4-hydroxy-1-(hydroxyacetyl)pyrrolidin-3-yl]-2-methyl-1H-pyrrolo[3,2-b]pyridine-3-carboxamide] | 1 to 10
COCC(=O)N[C@H]1CC[C@@H](NC(=O)c2c(C)[nH]c3c(-c4cc(F)c(OC)cc4OCC4CC4)ccnc23)CC1 [Example E84, 7-[2-(Cyclopropylmethoxy)-5-fluoro-4-methoxyphenyl]-N-{cis-4-[(methoxyacetyl)amino]cyclohexyl}-2-methyl-1H-pyrrolo[3,2-b]pyridine-3-carboxamide] | < 1
Cc1[nH]c2c(-c3cc(F)ccc3OCC3CC3)ccnc2c1C(=O)NC1CCN(C(=O)CO)CC1 [Example F12, 7-[2-(Cyclopropylmethoxy)-5-fluorophenyl]-N-[1-(hydroxyacetyl)piperidin-4-yl]-2-methyl-1H-pyrrolo[3,2-b]pyridine-3-carboxamide] | 1 to 10
Cc1[nH]c2c(-c3ccc(F)cc3OCC3CC3)ccnc2c1C(=O)N[C@H]1CC[C@@H](NC(=O)CO)CC1 [Example F10, 7-[2-(Cyclopropylmethoxy)-4-fluorophenyl]-N-{cis-4-[(hydroxyacetyl)amino]cyclohexyl}-2-methyl-1H-pyrrolo[3,2-b]pyridine-3-carboxamide] | 1 to 10
COCC(=O)N1CC[C@@H](NC(=O)c2c(C)[nH]c3c(-c4cc(F)ccc4OCC4CC4)ccnc23)[C@H](O)C1 (relative stereo) [Example E30, 7-[2-(Cyclopropylmethoxy)-5-fluorophenyl]-N-[(3R*,4R*)-3-hydroxy-1-(methoxyacetyl)piperidin-4-yl]-2-methyl-1H-pyrrolo[3,2-b]pyridine-3-carboxamide] | 1 to 10
COCC(=O)N1CCC(NC(=O)c2c(C)[nH]c3c(-c4ccc(F)cc4OCC4CC4)ccnc23)CC1 [Example E12, 7-[2-(Cyclopropylmethoxy)-4-fluorophenyl]-N-[1-(methoxyacetyl)piperidin-4-yl]-2-methyl-1H-pyrrolo[3,2-b]pyridine-3-carboxamide] | 1 to 10
COc1ccc(OCC2CC2)c(-c2ccnc3c(C(=O)N[C@H]4CC[C@H](NC(C)=O)CC4)c(C)[nH]c23)c1 [Example E43, N-[trans-4-(Acetylamino)cyclohexyl]-7-[2-(cyclopropylmethoxy)-5-methoxyphenyl]-2-methyl-1H-pyrrolo[3,2-b]pyridine-3-carboxamide] | < 1
Cc1[nH]c2c(-c3c(OCC4CC4)ccc4c3OCO4)ccnc2c1C(=O)N[C@H]1CC[C@@H](NC(=O)CO)CC1 [Example F04, 7-[5-(Cyclopropylmethoxy)-1,3-benzodioxol-4-yl]-N-[cis-4-(glycoloylamino)cyclohexyl]-2-methyl-1H-pyrrolo[3,2-b]pyridine-3-carboxamide] | < 1
COCC(=O)N1CCC(NC(=O)c2c(C)[nH]c3c(-c4c(OCC5CC5)ccc5c4OCO5)ccnc23)CC1 [Example E03, 7-[5-(Cyclopropylmethoxy)-1,3-benzodioxol-4-yl]-N-[1-(methoxyacetyl)piperidin-4-yl]-2-methyl-1H-pyrrolo[3,2-b]pyridine-3-carboxamide] | < 1
Cc1[nH]c2c(-c3cc(F)ccc3OCC3CC3)ccnc2c1C(=O)N[C@@H]1CCN(C(=O)CO)C[C@H]1O (relative stereo) [Example F18, 7-[2-(Cyclopropylmethoxy)-5-fluorophenyl]-N-[rel.(3R,4R)-3-hydroxy-1-(hydroxyacetyl)piperidin-4-yl]-2-methyl-1H-pyrrolo[3,2-b]pyridine-3-carboxamide] | 1 to 10
COc1ccc(-c2ccnc3c(C(=O)NC4CCN(C(=O)[C@H](C)O)CC4)c(C)[nH]c23)c(OCC2CC2)c1 [Example F21, 7-[2-(Cyclopropylmethoxy)-4-methoxyphenyl]-N-{1-[(2S)-2-hydroxypropanoyl]piperidin-4-yl}-2-methyl-1H-pyrrolo[3,2-b]pyridine-3-carboxamide] | < 1
CCC(=O)N1CC[C@@H](NC(=O)c2c(C)[nH]c3c(-c4cc(OC)c(F)cc4OCC4CC4)ccnc23)[C@H](O)C1 (relative stereo) [Example E74, 7-[2-(Cyclopropylmethoxy)-4-fluoro-5-methoxyphenyl]-N-[(3R*,4R*)-3-hydroxy-1-propanoylpiperidin-4-yl]-2-methyl-1H-pyrrolo[3,2-b]pyridine-3-carboxamide] | < 1
COc1cc(-c2ccnc3c(C(=O)N[C@H]4CC[C@H](NC(C)=O)CC4)c(C)[nH]c23)c(OCC2CC2)cc1F [Example E64, N-[trans-4-(Acetylamino)cyclohexyl]-7-[2-(cyclopropylmethoxy)-4-fluoro-5-methoxyphenyl]-2-methyl-1H-pyrrolo[3,2-b]pyridine-3-carboxamide] | < 1
COc1ccc(OCC2CC2)c(-c2ccnc3c(C(=O)N[C@@H]4CN(C(C)=O)C[C@H]4O)c(C)[nH]c23)c1 (relative stereo) [Example E49, N-[(3R*,4R*)-1-Acetyl-4-hydroxypyrrolidin-3-yl]-7-[2-(cyclopropylmethoxy)-5-methoxyphenyl]-2-methyl-1H-pyrrolo[3,2-b]pyridine-3-carboxamide] | 1 to 10
